From US10428134B2, “Immunoglobulins and uses thereof” (JANSSEN PHARMACEUTICA NV, priority 2016, dated 2019)
Marks after values point to notes of the source that are not given here.

Experiments:
[1] = Single-dose efficacy in DIO mice: plasma FGF21; conditions: 0.3 nmol/kg s.c., 26 hours after treatment
[2] = Repeat dosing in DIO mice: fasting glucose, insulin, FGF21, plasma lipids; assay type: in vivo, mouse; conditions: 0.3 nmol/kg s.c. daily
Experimental: To control for the dosing frequency, all animals were dosed daily. Dosing frequency was determined on the basis of DIO mouse PK data for compound 2 and dulaglutide. Animals in the dulaglutide group received this drug daily. The vehicle-treated animals received vehicle daily. […] The day prior to initiating of dosing, animals were weighed and grouped by body weight. […].
Beginning 24-hr after the first dosing, three groups of mice were pair-fed (PF) to the 1.0, 2.0, or 4.0 nmol/kg compound 2-treated animals. The amount of food in the hopper of pair-fed mice was adjusted to match the average food consumed in the previous 24 hours by mice in the compound treatment group to which they were being matched. All PF groups were dosed daily with vehicle. On the ninth day (or Day 10 for the pair-fed groups), animals were fasted for 6 hours and body weight and fasting glucose were measured. Blood was collected for measurements of insulin, FGF21 and plasma lipids. The food intake, body weight, body composition, fasting glucose, fasting insulin, fasting FGF21, and fasting plasma lipid data are shown in tables 20-26.

[3] = Fed blood glucose after 8 days of treatment in DIO mice; assay type: in vivo, mouse; conditions: 0.3 nmol/kg s.c. every day
Experimental: (§1) Compound 1 was evaluated for its ability to reduce foot intake and body weight and improve glucose homeostasis on repeat dosing in male DIO C57Bl/6 mice over a period of 8 days. Male DIO C57BL/6N mice (20 weeks of age, 14 weeks on high fat diet) were obtained from Taconic Laboratory. […] Animals were acclimated to the facility for at least one week prior to the start of the experiment.
(§2) The day prior to dosing, mice were grouped based on individual body weights. At 3:00-4:00 pm for each of the next 8 days, animals and food intake were weighed. […] After 8 days, mice are fasted for 5 hours and then given a 2 g/kg bolus of glucose orally at t=0. At t=0, 30, 60, 90, and 120 minutes post glucose challenge blood glucose is measured and at t=0, 30, and 90 minutes blood in drawn to measure plasma insulin. […] All data are presented as the mean±SEM (FIGS. 8 and 9, and Tables 5-8).

[4] = Weight loss in DIO mice, chronic dosing: body weight; assay type: in vivo, mouse; conditions: 0.3 nmol/kg s.c. every day
Experimental: as §1, §2

mouse GCGR = molecular target: T1, mouse GCGR (Mus musculus, UniProt Q61606); assay: mouse glucagon receptor cAMP assay; assay type: cell-based; conditions: HEK293 cells
T1 construct: expressed in transfected cells
T1 sequence (Q61606 27-485): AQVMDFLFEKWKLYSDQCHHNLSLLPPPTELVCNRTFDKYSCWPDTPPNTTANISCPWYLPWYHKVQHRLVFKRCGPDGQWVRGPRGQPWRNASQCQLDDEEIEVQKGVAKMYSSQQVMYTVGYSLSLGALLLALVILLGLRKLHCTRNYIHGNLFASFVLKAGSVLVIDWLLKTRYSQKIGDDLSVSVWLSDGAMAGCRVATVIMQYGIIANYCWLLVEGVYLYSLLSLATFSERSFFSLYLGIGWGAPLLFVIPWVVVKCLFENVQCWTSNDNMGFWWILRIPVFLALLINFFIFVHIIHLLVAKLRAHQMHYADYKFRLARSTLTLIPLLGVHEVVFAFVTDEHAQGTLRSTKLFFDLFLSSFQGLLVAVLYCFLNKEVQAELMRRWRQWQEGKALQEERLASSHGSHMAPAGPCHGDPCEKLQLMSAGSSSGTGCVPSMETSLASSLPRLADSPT
Experimental: (§3) For each receptor assay, the clonal cells were seeded into 384-well plates at the appropriate densities ranging from 2000-5000 cells/per well. Compounds were diluted in HBSS supplemented with 5 mM HEPES, 0.1% BSA and 0.5 mM IBMX and added to the cells. […] Standard curves were included in each assay plate for back calculation of cAMP concentrations.

[5] = OGTT after 8 days of treatment in DIO mice (glucose, insulin); assay type: in vivo, mouse; conditions: 0.3 nmol/kg s.c. every day
Experimental: as §1, §2

rat GCGR = molecular target: T2, rat GCGR (Rattus norvegicus, UniProt P30082); assay: rat glucagon receptor cAMP assay; assay type: cell-based; conditions: HEK293 cells
T2 construct: expressed in transfected cells
T2 sequence (P30082 27-485): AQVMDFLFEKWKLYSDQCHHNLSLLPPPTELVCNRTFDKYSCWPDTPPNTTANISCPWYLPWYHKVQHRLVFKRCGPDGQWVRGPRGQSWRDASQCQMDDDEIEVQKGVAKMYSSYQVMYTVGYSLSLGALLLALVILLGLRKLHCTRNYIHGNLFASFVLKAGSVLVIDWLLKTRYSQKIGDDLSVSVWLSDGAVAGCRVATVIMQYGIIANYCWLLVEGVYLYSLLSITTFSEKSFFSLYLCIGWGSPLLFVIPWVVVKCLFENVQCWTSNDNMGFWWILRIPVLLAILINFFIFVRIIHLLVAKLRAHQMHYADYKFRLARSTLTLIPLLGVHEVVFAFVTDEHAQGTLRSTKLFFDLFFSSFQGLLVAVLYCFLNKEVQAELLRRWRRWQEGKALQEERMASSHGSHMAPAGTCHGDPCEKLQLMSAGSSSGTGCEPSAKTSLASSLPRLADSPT
Experimental: as §3

cynomolgus monkey GCGR = assay: cynomolgus monkey glucagon receptor cAMP assay; assay type: cell-based; conditions: HEK293 cells
Experimental: as §3

human GCGR = molecular target: T3, human GCGR (Homo sapiens, UniProt P47871); assay: human glucagon receptor cAMP assay; assay type: cell-based; conditions: HEK293 cells
T3 construct: expressed in transfected cells
T3 sequence (P47871 26-477): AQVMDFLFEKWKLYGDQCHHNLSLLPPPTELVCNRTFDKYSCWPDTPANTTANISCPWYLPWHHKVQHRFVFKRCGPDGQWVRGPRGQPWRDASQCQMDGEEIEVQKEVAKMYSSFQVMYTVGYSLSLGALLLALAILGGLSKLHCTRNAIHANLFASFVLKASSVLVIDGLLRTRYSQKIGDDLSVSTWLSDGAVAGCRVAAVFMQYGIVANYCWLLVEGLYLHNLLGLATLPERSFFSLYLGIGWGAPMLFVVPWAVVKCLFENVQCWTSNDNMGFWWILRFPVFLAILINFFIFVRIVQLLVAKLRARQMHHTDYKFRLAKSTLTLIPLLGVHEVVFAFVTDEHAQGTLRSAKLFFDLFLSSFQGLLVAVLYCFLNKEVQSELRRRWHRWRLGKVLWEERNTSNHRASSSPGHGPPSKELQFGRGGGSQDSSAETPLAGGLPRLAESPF
Experimental: as §3

[6] = Single-dose efficacy in DIO mice: food intake, body weight
mouse GLP1R = molecular target: T4, mouse GLP1R (Mus musculus, UniProt O35659); assay: mouse GLP1 receptor cAMP assay; assay type: cell-based; conditions: HEK293 cells
T4 construct: expressed in transfected cells
T4 sequence (O35659 22-463): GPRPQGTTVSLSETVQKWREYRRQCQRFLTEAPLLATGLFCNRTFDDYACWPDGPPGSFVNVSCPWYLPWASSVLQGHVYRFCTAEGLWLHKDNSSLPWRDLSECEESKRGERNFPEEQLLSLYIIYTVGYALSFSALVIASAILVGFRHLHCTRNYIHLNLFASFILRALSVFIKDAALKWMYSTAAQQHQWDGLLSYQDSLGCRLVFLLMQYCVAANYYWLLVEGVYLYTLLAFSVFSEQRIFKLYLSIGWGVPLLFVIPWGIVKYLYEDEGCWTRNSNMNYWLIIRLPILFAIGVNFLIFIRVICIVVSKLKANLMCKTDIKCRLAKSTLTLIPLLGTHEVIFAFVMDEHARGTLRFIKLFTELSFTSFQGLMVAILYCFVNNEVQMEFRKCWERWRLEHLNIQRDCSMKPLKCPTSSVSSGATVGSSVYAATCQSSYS
Experimental: as §3

[7] = Single-dose efficacy in DIO mice: IPGTT, fasting glucose, insulin; conditions: 0.3 nmol/kg s.c.

In the case of “Dulaglutide: the GLP1R agonist, dulaglutide [reference compound]”, the “Plasma FGF21” value [1] is reported as 0.8 ± 0.2 ng/mL, the “plasma Free Fatty Acids” value ([2]; after repeated dosing) is reported as 73.2 ± 12.0 µmol/L and the “plasma Free Glycerol” value ([2]; after repeated dosing) is reported as 0.5 ± 0.1 mmol/L. For the same substance, the “plasma Total cholesterol” value ([2]; after repeated dosing) was 146.1 ± 3.3 mg/dL, the “plasma Triglycerides” value ([2]; after repeated dosing) was 24.1 ± 2.3 mg/dL and the “6 hour fasting Blood Glucose” value ([2]; after repeated dosing (9 days)) was 123 ± 5 mg/dL. The “6 hour fasting Plasma Insulin” value ([2]; after repeated dosing (9 days)) was 1.4 ± 0.2 ng/mL, the “6 hour fasting plasma FGF21” value ([2]; after repeated dosing (9 days)) was 0.5 ± 0.1 ng/mL and the “fed Blood Glucose” value [3] was 114 ± 13 mg/dL. The body weight ([4]; day 0) was 45.9 ± 0.6 g, the body weight ([4]; day 1) was 44.1 ± 0.6 g and the body weight ([4]; day 2) was 42.2 ± 0.6 g. It also gave a body weight ([4]; day 3) of 40.6 ± 0.6 g, a body weight ([4]; day 4) of 39.3 ± 0.6 g and a body weight ([4]; day 5) of 38.1 ± 0.7 g. For the same substance, the body weight ([4]; day 6) was 37.1 ± 0.8 g, the body weight ([4]; day 7) was 36.4 ± 1.0 g and the body weight ([4]; day 8) was 36.5 ± 1.1 g. For the same substance, the body weight ([4]; day −1) was 46.3 ± 0.6 g, the EC50 (mouse GCGR) was > 100 nM and the “blood glucose Delta AUC (OGTT)” value [5] was 6668 ± 1846 mg/dl/120 min. For the same substance, the “blood glucose Total AUC (OGTT)” value [5] was 15758 ± 1054 mg/dl/120 min, the “blood glucose during OGTT” value ([5]; 0 min after glucose challenge) was 76 ± 9 mg/dL and the “insulin during OGTT” value ([5]; 0 min after glucose challenge) was 0.6 ± 0.1 ng/mL. For the same substance, the “blood glucose during OGTT” value ([5]; 30 min after glucose challenge) was 151 ± 14 mg/dL, the “insulin during OGTT” value ([5]; 30 min after glucose challenge) was 1.7 ± 0.2 ng/mL and the “blood glucose during OGTT” value ([5]; 60 min after glucose challenge) was 174 ± 17 mg/dL. For the same substance, the “blood glucose during OGTT” value ([5]; 90 min after glucose challenge) was 104 ± 10 mg/dL, the “insulin during OGTT” value ([5]; 90 min after glucose challenge) was 0.7 ± 0.2 ng/mL and the “blood glucose during OGTT” value ([5]; 120 min after glucose challenge) was 119 ± 9 mg/dL. For the same substance, the EC50 (rat GCGR) was > 100 nM, the EC50 (cynomolgus monkey GCGR) was > 100 nM and the EC50 (human GCGR) was > 100 nM. The food intake ([6]; 0.3 nmol/kg group, 24 hours pre-dose) was 3.1 ± 0.1 grams, the “Weight Change” value ([6]; single s.c. dose 0.3 nmol/kg, 18 hours after treatment) was −4.1 ± 0.3 % and the food intake ([6]; single s.c. dose 0.3 nmol/kg, 18 hours post-dose) was 1.5 ± 0.1*^ grams. The EC50 (mouse GLP1R) was 0.035 ± 0.002 nM, the “Plasma Insulin” value ([7]; 10 minutes post-glucose (IPGTT)) was 1.7 ± 0.2 ng/mL and the “6 hour fasting Blood Glucose” value ([7]; 24 hours after treatment) was 140 ± 7 mg/dL. The “Blood Glucose Net AUC (IPGTT)” value ([7]; 24 hours after treatment) was 8471 ± 1204, the “blood glucose during IPGTT” value ([7]; 24 hours after treatment, 0 min) was 140 ± 7 mg/dL and the “blood glucose during IPGTT” value ([7]; 24 hours after treatment, 10 min) was 264 ± 18 mg/dL. For the same substance, the “blood glucose during IPGTT” value ([7]; 24 hours after treatment, 30 min) was 267 ± 22 mg/dL, the “blood glucose during IPGTT” value ([7]; 24 hours after treatment, 60 min) was 228 ± 12 mg/dL and the “blood glucose during IPGTT” value ([7]; 24 hours after treatment, 90 min) was 193 ± 9 mg/dL. For the same substance, the “Plasma Insulin” value ([7]; Pre-glucose (24 hours after treatment)) was 1.6 ± 0.2 ng/mL.
